According to patent US5357044A, “Cecropins fusion proteins” (Xoma Corporation, priority 1993, dated 1994):
Ends that are not written are not given here.

Experiments:
[1] = test system: Streptococcus faecalis; assay: Bactericidal agar-well halo assay, Streptococcus faecalis; format: cell-based; settings: ampicillin 750 ng
Method: (§1) Agar plates (8 cm in diameter) were prepared with 6 ml of TYE medium containing about 10^7 viable cells of test organism. Wells, 2 mm diameter, were punched in the plates. The test material was dissolved in 50 mM phosphate buffer (pH 6.6) and 3 ul was applied to each well. The diameters of the inhibition zones, or halos, around the wells were measured after overnight incubation at 25° C. To determine a standard of halo formation, CA 1-33 protein was used. 1 ug and 3 ug of CA 1-33 in well applications caused halos with diameters of 8 mm and 11 mm respectively, on media infused with E. coli strain JF568. 10 ug and 30 ug of cyanogen bromide-digested pCA3A araB-CA fusion protein caused halos with diameters 7 mm and 18 mm respectively.
(§2) Cyanogen bromide-digested fusion protein fractionated by HPLC was also applied to this assay. […] Other bacterial and yeast strains were also tested in this assay. Cyanogen bromide-digested and undigested fusion protein samples were applied in the amounts described above in the testing of E. coli strain JF568, and the resulting halo diameters were measured.

[2] = test system: Salmonella derby; assay: Bactericidal agar-well halo assay, Salmonella derby; format: cell-based
Method: as §1, §2

[3] = test system: Erwinia carotovora EC; assay: Bactericidal agar-well halo assay, Erwinia carotovora EC; format: cell-based
Method: as §1, §2

[4] = test system: E. coli 5506; assay: Bactericidal agar-well halo assay, E. coli 5506; format: cell-based
Method: as §1, §2

[5] = test system: E. coli 5506 DR; assay: Bactericidal agar-well halo assay, E. coli 5506 DR; format: cell-based
Method: as §1, §2

[6] = test system: Bacillus megaterium; settings: background art; cited from earlier work
[7] = test system: E. coli; settings: background art; cited from earlier work
[8] = test system: eight other species of bacteria; settings: background art; cited from earlier work
[9] = test system: Pseudomonas PS-9; assay: Bactericidal agar-well halo assay, Pseudomonas PS-9; format: cell-based; settings: CNBr-digested fusion protein isolate 5 ug
Method: as §1, §2

[10] = test system: Klebsiella pneumoniae; assay: Bactericidal agar-well halo assay, Klebsiella pneumoniae; format: cell-based; settings: CNBr-digested fusion protein isolate 5 ug
Method: as §1, §2

[11] = test system: Xenohabdus nematophillus; assay: Bactericidal agar-well halo assay, Xenohabdus nematophillus; format: cell-based; settings: CNBr-digested fusion protein isolate 5 ug
Method: Cyanogen bromide-digested fusion protein fractionated by HPLC was also applied to this assay. […] Cyanogen bromide-digested and undigested fusion protein samples were applied in the amounts described above in the testing of E. coli strain JF568, and the resulting halo diameters were measured.

[12] = test system: Serratia marcesens; assay: Bactericidal agar-well halo assay, Serratia marcesens; format: cell-based; settings: CNBr-digested fusion protein isolate 5 ug
Method: as §1, §2

[13] = CNBr-digested fusion protein isolate 5 ug

CC1(C)S[C@@H]2[C@H](NC(=O)[C@H](N)c3ccccc3)C(=O)N2[C@H]1C(=O)O [Ampicillin, ampicillin]
Halo Activity in Millimeters [1]: 7.0 Millimeters | Halo Activity in Millimeters ([2]; ampicillin 750 ng): 6.0 Millimeters | Halo Activity in Millimeters ([3]; ampicillin 750 ng): 6.5 Millimeters | Halo Activity in Millimeters ([4]; ampicillin 750 ng): 4.5 Millimeters | Halo Activity in Millimeters ([5]; ampicillin 750 ng): 4.5 Millimeters

cecropin A: natural antibacterial peptide purified from immune hemolymph of the Cecropia moth (KWKLFKKIEKVGQNIRDGIIKAGPAVAVVGQATQIAK; UniProt P01507 27-63, looked up)
sensitivity of the bacterium to the cecropin [6]: highly sensitive

cecropin B: natural antibacterial peptide purified from immune hemolymph; sequence shown in b10 (KWKVFKKIEKMGRNIRNGIVKAGPAIAVLGEAKAL; UniProt P01508 27-61, looked up)
sensitivity of the bacterium to the cecropin [6]: highly sensitive

cecropin D
sensitivity of the bacterium to the cecropin [6]: relatively resistant | activity against E. coli relative to cecropins A and B [7]: almost as much activity | activity against eight other species of bacteria [8]: significantly reduced activity

pCA3D: CNBr-digested araB-CA fusion protein isolate from E. coli carrying plasmid pCA3D; releases wild type cecropin A (KWKLFKKIEKVGQNIRDGIIKAGPAVAVVGQATQIAK; ends and bridges not checked; UniProt P01507 27-63, looked up)
Halo Activity in Millimeters [2, 13]: 5.0 Millimeters | Halo Activity in Millimeters [9]: 2.0 Millimeters | Halo Activity in Millimeters [10]: 4.5 Millimeters | Halo Activity in Millimeters [3, 13]: 4.75 Millimeters | Halo Activity in Millimeters [11]: 2.75 Millimeters | Halo Activity in Millimeters [12]: 1.0 Millimeters | Halo Activity in Millimeters [4, 13]: 5.0 Millimeters | Halo Activity in Millimeters [5, 13]: 6.5 Millimeters
